Results on 5 compounds are retold here after patent US20250040543A1, “Preservative Composition” (ARXADA AG, priority 2021, published 2025).

The subject of one test is Pseudomonas aeruginosa. Description: MIC and Synergy Index (Kull) of two-component compositions. It is filed as cell-based. To be noted: for MIC: Pseudomonas aeruginosa. Here is the method: (§1) A wide range of concentrations were tested against Pseudomonas aeruginosa, Staphylococcus aureus, Escherichia coli, and Candda albicans.
(§2) The lowest concentration of each mixture or single compound which prevents an observable level of growth was determined to be the minimum inhibitory concentration (MIC) value.
(§3) Serial dilutions of each mixture or single compound were prepared. Micro-organisms were inoculated into media: Nutrient Broth (bacteria) or Malt Extract Broth (yeast). The final concentrations of micro-organisms in media was approximately 10^5-6 CFU/ml. The inoculated media was introduced to each of the serial dilutions at a 1:1 ratio, and incubated at 30±1° C. for 24-48 hours.
(§4) The MICs for each mixture was compared with the MIC of each single compound alone.
(§5) Synergy was determined using the Kull equation (F. C. Kull et. al., “Mixtures of Quaternary Ammonium Compounds and Long-chain Fatty Acids as Antifungal Agents”, Appl Microbiol. 1961 November; 9(6): 538-541), which calculates a Synergy Index (SI) according the following equation:
(§6) [formula] • wherein • QA=concentration of compound A in ppm, acting alone produced an end point, • Qa=concentration of compound A in ppm, in the mixture, which produced an end point, • QB=concentration of compound B in ppm, acting alone produced an end point, and • Qb=concentration of compound B in ppm, in the mixture, which produced an end point;
(§7) In this study the end point is measured by the MIC.

Another test concerns Staphylococcus aureus. The description is as above. It is filed as cell-based. Particulars: for MIC: Staphylococcus aureus. Here is the method: as §1, §2, §3, §4, §5, §6, §7
A further test relates to Candida albicans. The description is as above. It is filed as cell-based. Particulars: for MIC: Candida albicans. As to the method:
as §1, §2, §3, §4, §7

Test [1] relates to Pseudomonas aeruginosa ATCC 9027. Description: Preservation efficacy test in sterile distilled water, drop plate. It is filed as cell-based. Particulars: 7 days, Butyl Levulinate 0 ppm. Here is the method: In the following example, the following test organisms were used: • Pseudomonas aeruginosa ATCC 9027 • Aspergillus brasiliensis ATCC 16404 [table] Bacteria were harvested and prepared in diluent (sterile distilled water) to obtain a final concentration of 1.0×10^6 to 5.0×10^6 cfu/ml. [table] […] Each sample was inoculated at t=0 with a known concentration of micro-organism. Each inoculated sample was then mixed until a homogenous mixture was obtained. […] The solution was left for 15 minutes. Subsequent dilutions were prepared by serial dilution of 0.1 ml into 0.9 ml of neutralising broth. Bacteria were serially diluted to 10^−4, Fungi were serially diluted to 10^−3. Each serial dilution was thoroughly mixed and 25 μl drops were aliquoted onto the surface of pre-prepared agar plates. Plates were prepared in sextupicate for each sample dilution. The agar plates were allowed to dry, then inverted and incubated under conditions appropriate for the test microorganisms. CFU/ml was calculated taking into account dilution factors. […] The lower and upper limits for drop plating were only employed on the highest and lowest dilution factor plates.

For test [2], the system named is Aspergillus brasiliensis ATCC 16404. Described as above. It is filed as cell-based. Particulars: 7 days, Butyl Levulinate 0 ppm. As to the method: In the following example, the following test organisms were used: • Pseudomonas aeruginosa ATCC 9027 • Aspergillus brasiliensis ATCC 16404 [table] Mould strain spores were harvested (sterile distilled water+0.05% polysorbate 80) and treated to remove fungal hyphae. Mould strain spores were prepared in diluent (sterile distilled water) to obtain a final concentration of […]. [table] […] Each sample was inoculated at t=0 with a known concentration of micro-organism. Each inoculated sample was then mixed until a homogenous mixture was obtained. […] The solution was left for 15 minutes. Subsequent dilutions were prepared by serial dilution of 0.1 ml into 0.9 ml of neutralising broth. Bacteria were serially diluted to 10^−4, Fungi were serially diluted to 10^−3. Each serial dilution was thoroughly mixed and 25 μl drops were aliquoted onto the surface of pre-prepared agar plates. Plates were prepared in sextupicate for each sample dilution. The agar plates were allowed to dry, then inverted and incubated under conditions appropriate for the test microorganisms. CFU/ml was calculated taking into account dilution factors. […] The lower and upper limits for drop plating were only employed on the highest and lowest dilution factor plates.

A further test deals with Escherichia coli. Description: MIC and Synergy Index (Kull) of two-component compositions. To be noted: for MIC: Escherichia coli. In kind it is cell-based. Here is the method: as §1, §2, §3, §4, §5, §6, §7
The subject of another test is C. albicans. Description: Preservation efficacy test in sterile distilled water, drop plate. In kind it is cell-based, Candida albicans. Particulars: 7 days, pH 7, Butyl Levulinate 0 ppm. As to the method:
Yeast strains were harvested and prepared in diluent (sterile distilled water) to obtain a final concentration of 1.0×10^5 to 1.0×10^6 cfu/ml.
Preservation efficacy testing started at Day 0 (t=0). Each sample was inoculated at t=0 with a known concentration of micro-organism. Each inoculated sample was then mixed until a homogenous mixture was obtained. Inoculated samples were stored in the dark at 22.5±2.5° C. throughout the test period.
At the specified contact time of 7 days (t=7), test samples were deactivated by adding a 0.1 ml aliquot of the test sample to 0.9 ml of an appropriate neutralising broth. The solution was left for 15 minutes. Subsequent dilutions were prepared by serial dilution of 0.1 ml into 0.9 ml of neutralising broth. Bacteria were serially diluted to 10^−4, Fungi were serially diluted to 10^−3.
Each serial dilution was thoroughly mixed and 25 μl drops were aliquoted onto the surface of pre-prepared agar plates. Plates were prepared in sextupicate for each sample dilution.
The agar plates were allowed to dry, then inverted and incubated under conditions appropriate for the test microorganisms.
CFU/ml was calculated taking into account dilution factors. Colonies from the incubated plates were enumerated using the lower count limit of <10 CFU/ml and the upper count limit of >330 CFU/ml.
The lower and upper limits for drop plating were only employed on the highest and lowest dilution factor plates.
The test organisms were prepared and the method was performed according to the protocol of Example 1.

[3] abbreviates: Lactic Acid alone, or its concentration in the mixture with ethyl levulinate, read-out: MIC (ppm) to inhibit growth: Lactic Acid.
[4] abbreviates: pH 7, Sodium Benzoate 10000 ppm.
Setting [5] is: pH 7, Sodium Benzoate 15000 ppm.
[6] abbreviates: pH 7, Sodium Benzoate 20000 ppm.
The mark [7] stands for this setting: pH 7, Sodium Benzoate 25000 ppm.
Where [8] appears, read: pH 8, Sodium Benzoate 10000 ppm.
The mark [9] stands for this setting: pH 8, Sodium Benzoate 15000 ppm.
Where [10] appears, read: pH 8, Sodium Benzoate 20000 ppm.
Where [11] appears, read: pH 8, Sodium Benzoate 25000 ppm.
Where [12] appears, read: Sodium benzoate alone, or its concentration in the mixture with butyl levulinate.
Where [13] appears, read: Sodium benzoate alone, or its concentration in the mixture with ethyl levulinate.
The mark [14] stands for this setting: ethyl levulinate alone, or its concentration in the mixture with Sodium benzoate, read-out: MIC (ppm) to inhibit growth: Ethyl levulinate.
The mark [15] stands for this setting: ethyl levulinate alone, or its concentration in the mixture with Sodium Pyrithione.
Where [16] appears, read: read-out: MIC (ppm) to inhibit growth: DHA.
The mark [17] stands for this setting: pH 7, Potassium Sorbate 5000 ppm.
Setting [18] is: pH 7, Potassium Sorbate 10000 ppm.
Setting [19] is: pH 7, Potassium Sorbate 15000 ppm.
Where [20] appears, read: pH 7, Potassium Sorbate 20000 ppm.
Where [21] appears, read: pH 7, Potassium Sorbate 25000 ppm.
[22] abbreviates: read-out: MIC (ppm) to inhibit growth: Potassium Sorbate.

Like-named read-outs stand apart in the source and are kept apart here. Bounds are passed on as bounds.

Regarding `CC(O)C(=O)O` (centres unmarked) [Lactic Acid, lactic acid, reference compound], the minimal inhibitory concentration (MIC) in the test with Pseudomonas aeruginosa (Lactic Acid alone, or its concentration in the mixture with butyl levulinate, read-out: MIC (ppm) to inhibit growth: Lactic Acid) was 625 µg/mL; with Staphylococcus aureus (setting [3]), 156 µg/mL; in the test with Candida albicans (setting [3]), 10000 µg/mL.

Take `O=C([O-])c1ccccc1.[Na+]` [Sodium Benzoate, sodium benzoate, reference compound]: the Log reduction in test [1] (pH 7, Sodium Benzoate 5000 ppm) is reported as 1.73; in test [1] (setting [4]), above 4.90; in test [1] (setting [5]) it was above 4.90; in test [1] (setting [6]), above 4.90; in test [1] (setting [7]), above 4.90; in test [1] (pH 8, Sodium Benzoate 5000 ppm) it was 1.54. Also, the Log reduction was 1.36 in test [1] (setting [8]); 1.57 in test [1] (setting [9]); 3.20 in test [1] (setting [10]); above 4.57 in test [1] (setting [11]); 2.09 in test [2] (pH 7, Sodium Benzoate 5000 ppm); 2.14 in test [2] (setting [4]). For the same compound, the Log reduction in test [2] (setting [5]) is given as 2.20; in test [2] (setting [6]) it was 2.33; in test [2] (setting [7]), 3.11; in test [2] (pH 8, Sodium Benzoate 5000 ppm), 0.33; in test [2] (setting [8]), 0.70; in test [2] (setting [9]), 0.64. Besides, the results for the Log reduction in test [2] (setting [10]) and in test [2] (setting [11]) were 0.60 and 0.55, respectively. Also, the “MIC (ppm) to inhibit growth: Sodium benzoate” value with Escherichia coli (setting [12]) is reported as 7500 ppm; in the test with Escherichia coli (setting [13]), 7500 ppm; with Staphylococcus aureus (setting [12]), 15000 ppm; with Staphylococcus aureus (setting [13]), 15000 ppm; in the test on Candida albicans (setting [12]), 7500 ppm; in the test on Candida albicans (setting [13]), 7500 ppm.

Consider `CCOC(=O)CCC(C)=O` [Ethyl levulinate, ethyl levulinate], for which the MIC with Escherichia coli (setting [14]) is 25000 µg/mL; in the test on Pseudomonas aeruginosa (ethyl levulinate alone, or its concentration in the mixture with ADBAC, read-out: MIC (ppm) to inhibit growth: Ethyl levulinate), 12500 µg/mL; in the test on Staphylococcus aureus (ethyl levulinate alone, or its concentration in the mixture with Lactic Acid, read-out: MIC (ppm) to inhibit growth: Ethyl levulinate), 12500 µg/mL; in the test on Staphylococcus aureus (ethyl levulinate alone, or its concentration in the mixture with Potassium Sorbate, read-out: MIC (ppm) to inhibit growth: Ethyl levulinate) it was 12500 µg/mL; with Staphylococcus aureus (setting [14]) it was 25000 µg/mL; in the test with Candida albicans (setting [14]), 25000 µg/mL. Besides, the “MIC (ppm) to inhibit growth: Ethyl levulinate” value is 12500 ppm in the test on Pseudomonas aeruginosa (setting [15]); 25000 ppm in the test on Candida albicans (ethyl levulinate alone, or its concentration in the mixture with ADBAC); 25000 ppm in the test with Candida albicans (ethyl levulinate alone, or its concentration in the mixture with Lactic Acid); 25000 ppm in the test on Candida albicans (ethyl levulinate alone, or its concentration in the mixture with Potassium Sorbate); 25000 ppm in the test on Candida albicans (setting [15]).

Take `CC(=O)C1C(=O)C=C(C)OC1=O` (centres unmarked) [DHA, dehydroacetic acid, reference compound]: the MIC in the test with Escherichia coli (setting [16]) stood at 5000 µg/mL; in the test on Candida albicans (setting [16]), 250 µg/mL.

Consider `C/C=C/C=C/C(=O)[O-].[K+]` [Potassium Sorbate, potassium sorbate, reference compound], for which the Log reduction was below 0.03 in test [1] (setting [17]); below 0.03 in test [1] (setting [18]); below 0.03 in test [1] (setting [19]); above 4.55 in test [1] (setting [20]); above 4.55 in test [1] (setting [21]); below 0.33 in test [1] (pH 8, Potassium Sorbate 5000 ppm). Moreover, the Log reduction in test [1] (pH 8, Potassium Sorbate 10000 ppm) was below 0.33; in test [1] (pH 8, Potassium Sorbate 15000 ppm), below 0.33; in test [1] (pH 8, Potassium Sorbate 20000 ppm), below 0.33; in test [1] (pH 8, Potassium Sorbate 25000 ppm), below 0.33; in test [2] (setting [17]), 0.58; in test [2] (setting [18]), 0.67. For the same compound, the Log reduction stood at 0.45 in test [2] (setting [19]); 0.64 in test [2] (setting [20]); 0.52 in test [2] (setting [21]); 1.01 in the test with C. albicans (Potassium Sorbate 5000 ppm); 0.72 in the test on C. albicans (Potassium Sorbate 10000 ppm); 0.72 in the test with C. albicans (Potassium Sorbate 15000 ppm). For the same compound, the Log reduction in the test on C. albicans (Potassium Sorbate 20000 ppm) is recorded as 0.92; with C. albicans (Potassium Sorbate 25000 ppm), 0.83. The MIC in the test on Staphylococcus aureus (setting [22]) was 156 µg/mL; in the test on Candida albicans (setting [22]) it was 2500 µg/mL. For the same compound, the “MIC (ppm) to inhibit growth: Potassium Sorbate” value with Candida albicans (Potassium Sorbate alone, or its concentration in the mixture with butyl levulinate) worked out at 2500 ppm.
